ChEMBL document CHEMBL2401633, “tert-Butyl 1,5-bis(4-(benzo[d]isothiazol-3-yl)piperazin-1-yl)-1,5-dioxopentan-2-ylcarbamate urea/thiourea derivatives as potent H+/K(+)-ATPase inhibitors” (Bioorg Med Chem Lett, 2013)

Experiments:
[1] = Inhibition of sheep gastric H(+)/K(+)-ATPase-mediated inorganic phosphate liberation after 15 mins by Fiske Subbarow method in presence of ATP; assay type: tissue-based, Ovis aries, Stomach
Ovis aries = organism: Ovis aries; assay: Ratio of omeprazole IC50 to compound IC50 for sheep gastric H(+)/K(+) ATPase; assay type: tissue-based; settings: Stomach

Compound	IC50 ([1]; read-out: IC50)	also measured
O=C(Nc1ccc(F)cc1)NC(CCC(=O)N1CCN(c2nsc3ccccc23)CC1)C(=O)N1CCN(c2nsc3ccccc23)CC1 (configuration not stated)	72 µM	–
CC(C)(C)OC(=O)NC(CCC(=O)N1CCN(c2nsc3ccccc23)CC1)C(=O)N1CCN(c2nsc3ccccc23)CC1 (configuration not stated)	–	IC50 [1]: Not Active
COc1ccc(NC(=O)NC(CCC(=O)N2CCN(c3nsc4ccccc34)CC2)C(=O)N2CCN(c3nsc4ccccc34)CC2)cc1 (configuration not stated)	6.2 µM	–
CC(C)(C)OC(=O)NC(CCC(=O)O)C(=O)N1CCN(c2nsc3ccccc23)CC1 (configuration not stated)	–	IC50 [1]: Not Active
CC(C)(C)OC(=O)NC(CCC(=O)OCc1ccccc1)C(=O)O (configuration not stated)	–	IC50 [1]: Not Active
O=C(Nc1ccccc1F)NC(CCC(=O)N1CCN(c2nsc3ccccc23)CC1)C(=O)N1CCN(c2nsc3ccccc23)CC1 (configuration not stated)	80 µM	–
O=C(Nc1ccccc1)NC(CCC(=O)N1CCN(c2nsc3ccccc23)CC1)C(=O)N1CCN(c2nsc3ccccc23)CC1 (configuration not stated)	94 µM	–
CC(C)(C)OC(=O)NC(CCC(=O)OCc1ccccc1)C(=O)N1CCN(c2nsc3ccccc23)CC1 (configuration not stated)	–	IC50 [1]: Not Active
O=C(Nc1ccc(Cl)cc1)NC(CCC(=O)N1CCN(c2nsc3ccccc23)CC1)C(=O)N1CCN(c2nsc3ccccc23)CC1 (configuration not stated)	52 µM	–
COc1ccc2[nH]c([S+]([O-])Cc3ncc(C)c(OC)c3C)nc2c1 (configuration not stated) [OMEPRAZOLE]	84 µM	–
O=C(Nc1ccc(Br)cc1)NC(CCC(=O)N1CCN(c2nsc3ccccc23)CC1)C(=O)N1CCN(c2nsc3ccccc23)CC1 (configuration not stated)	46 µM	–
COc1ccccc1NC(=S)NC(CCC(=O)N1CCN(c2nsc3ccccc23)CC1)C(=O)N1CCN(c2nsc3ccccc23)CC1 (configuration not stated)	17 µM	–
COc1cccc(NC(=O)NC(CCC(=O)N2CCN(c3nsc4ccccc34)CC2)C(=O)N2CCN(c3nsc4ccccc34)CC2)c1 (configuration not stated)	11 µM	–
COc1ccccc1NC(=O)NC(CCC(=O)N1CCN(c2nsc3ccccc23)CC1)C(=O)N1CCN(c2nsc3ccccc23)CC1 (configuration not stated)	19 µM	–

Now from value to compound, other results behind:

IC50 ([1]; read-out: IC50)	Compound	also measured
78 µM	O=C(Nc1cccc(F)c1)NC(CCC(=O)N1CCN(c2nsc3ccccc23)CC1)C(=O)N1CCN(c2nsc3ccccc23)CC1 (configuration not stated)	–
56 µM	O=C(Nc1cccc(Cl)c1)NC(CCC(=O)N1CCN(c2nsc3ccccc23)CC1)C(=O)N1CCN(c2nsc3ccccc23)CC1 (configuration not stated)	–
74 µM	O=C(CCC(NC(=S)Nc1ccccc1F)C(=O)N1CCN(c2nsc3ccccc23)CC1)N1CCN(c2nsc3ccccc23)CC1 (configuration not stated)	–
48 µM	O=C(CCC(NC(=S)Nc1cccc(Br)c1)C(=O)N1CCN(c2nsc3ccccc23)CC1)N1CCN(c2nsc3ccccc23)CC1 (configuration not stated)	–
70 µM	O=C(CCC(NC(=S)Nc1ccc(F)cc1)C(=O)N1CCN(c2nsc3ccccc23)CC1)N1CCN(c2nsc3ccccc23)CC1 (configuration not stated)	–
10 µM	COc1cccc(NC(=S)NC(CCC(=O)N2CCN(c3nsc4ccccc34)CC2)C(=O)N2CCN(c3nsc4ccccc34)CC2)c1 (configuration not stated)	–
44 µM	O=C(CCC(NC(=S)Nc1ccccc1Br)C(=O)N1CCN(c2nsc3ccccc23)CC1)N1CCN(c2nsc3ccccc23)CC1 (configuration not stated)	–
5.4 µM	COc1ccc(NC(=S)NC(CCC(=O)N2CCN(c3nsc4ccccc34)CC2)C(=O)N2CCN(c3nsc4ccccc34)CC2)cc1 (configuration not stated)	Ratio IC50 (Ovis aries): 15
60 µM	O=C(CCC(NC(=S)Nc1cccc(Cl)c1)C(=O)N1CCN(c2nsc3ccccc23)CC1)N1CCN(c2nsc3ccccc23)CC1 (configuration not stated)	–
90 µM	O=C(CCC(NC(=S)Nc1ccccc1)C(=O)N1CCN(c2nsc3ccccc23)CC1)N1CCN(c2nsc3ccccc23)CC1 (configuration not stated)	–
54 µM	O=C(CCC(NC(=S)Nc1ccc(Cl)cc1)C(=O)N1CCN(c2nsc3ccccc23)CC1)N1CCN(c2nsc3ccccc23)CC1 (configuration not stated)	–
50 µM	O=C(Nc1cccc(Br)c1)NC(CCC(=O)N1CCN(c2nsc3ccccc23)CC1)C(=O)N1CCN(c2nsc3ccccc23)CC1 (configuration not stated)	–
